What was measured:
MDA-MB-231 cells [1] = assay: Membrane asymmetry with violet ratiometric probe; assay type: cell-based; conditions: FIG. 6B
Experimental: (§1) HCT-116, MCF-7, or MDA-MB-231 cells were collected at a final concentration of 1×10^6 cells/mL and assayed using the SYTOX® AADvanced™ dead cell stain solution (Invitrogen). Cells were analyzed using the BD FACSCanto flow cytometer. SYTOX® AADvanced™ was visualized at 488 nm and emissions collected at 695 nm. Analysis of data was done using FSC Express software (DeNovo). Membrane asymmetry was assessed using the Violet Ratiometric Membrane Asymmetry Probe/Dead Cell Apoptosis Kit (Invitrogen) according to the manufacturer's protocol.
(§2) To evaluate apoptosis, cells were pre-treated with 100 μM of the pan-caspase inhibitor Z-VAD-fmk (EMD Biosciences) or transiently transfected with Bcl-2, then treated with either CT20/nanoparticles or cisplatin (CDDP) alone or in combination as indicated in figure legends. Following treatment, cells were analyzed for cell death and membrane asymmetry.
Therefore, to determine whether the CT20p peptide induced apoptotic cell death, the amount of membrane asymmetry caused by flipping of phospholipids phospholipids in the plasma membrane using a violet ratiometric probe was determined. In FIG. 6B, dot blots show the comparison of loss of membrane integrity to changes in membrane symmetry in MDA-MB-231 cells treated with CT20p peptide and/or CDDP. […] This was minimally affected by caspase inhibition or Bcl-2 expression. […]

MDA-MB-231 cells [2] = assay: Cell death by CT20 peptide/nanoparticles and/or CDDP, with Z-VAD-fmk or Bcl-2 overexpression; assay type: cell-based; conditions: FIG. 6A; for effect of caspase inhibition with Z-VAD-FMK on cell death: 100 μM Z-VAD-fmk pre-treatment; for cell death / loss of membrane integrity: CT20 peptide/nanoparticles 350 pM; for effect of Bcl-2 overexpression on cell death: transient Bcl-2 transfection
Experimental: MDA-MB-231 cells were transiently transfected with pcDNA-Bcl2 (or as control pEGFP (Clontech)) using the TransIT-LT1 transfection reagent (Minis). To assess transfection efficiency, cells were assayed microscopically for EGFP expression. To assess Bcl-2 expression, cells lysates were immunoblotted.
Visualization of the uptake and effects of the fluorescent dye (DiI)-loaded nanoparticles in HCT-116, MCF-7, and MDA-MD-231 cells was observed using a 10× air objective with a numerical aperture of 0.3, using ex/em of 514/587. All cells were loaded with MitoTracker. Visualization of the HCT-116 cell lines was observed using Plan-Apochromat 63× Oil objective. MCF-7 and MDA-MB-231 images were captured using Plan-Apochromat 40× Oil objective. All time-lapse images were generated in 2D by capturing 6 time points per hour for 24 hours of the same field.
as §1, §2
Whether the CT20 peptide was able to kill the breast cancer cells, MCF-7 and MDA-MB-231, was examined. […] For each sample, three different fields of view were acquired. Images are representative “snapshots” of three independent experiments Most MCF-7 cells died within 24 hours, while loss of membrane integrity was detected by 3 hours of treatment (FIG. 5B). […] Within three hours, increased membrane rupture was detected in MDA-MB-231 cells treated with COOH-nanoparticles loaded with CT20 peptide (FIG. 5D).
To investigate the mechanism by which the CT20p peptide was inducing cell death, MDA-MB-231 cells were treated with CT20 Bax peptide/nanoparticles (350 pM). A caspase inhibitor (e.g., ZVAD-Fmk and/or CDDP) was added or Bcl-2 was overexpressed. […] The expression of Bcl-2 by transfected cells was confirmed by immunoblotting lysates prepared from cells (FIG. 10).

[3] = Calcein release from calcein-loaded large unilamellar vesicles; assay type: biochemical; conditions: for maximal release of calcein upon treatment with detergent: Triton X-100 after peptide; for maximal release of calcein upon treatment with detergent / release of calcein from mitochondrial-like lipid vesicles: FIG. 1C; for release of calcein from mitochondrial-like lipid vesicles: free peptide
Experimental: Calcein release from artificial membranes was measured on a JASCO 810 spectropolarimeter (Jasco Inc.) with a Peltier water cooled thermostat and a photomultiplier tube mounted at 90 degrees for fluorescence measurements. Large unilamellar vesicles (LUVs) were prepared with the following modifications: Lipids (Avanti Polar Lipids) in chloroform were mixed in the following molar ratios: 52.5% 1-palmitoyl-2-oleyl-sn-glycero-3-phosphatidylcholine (POPC), 21% 1-palmitoyl-2-oleyl-sn-glycero-3-phosphatidylethanolamine (POPE), 13% bovine liver L-α phosphatidylinositol (PI), 10% cholesterol and 3.5% 1-palmitoyl-2-oleyl-sn-glycero-3-phosphatidylglycerol (POPG). These rations mimicked the outer mitochondrial membrane. After removing chloroform and desiccating, the dried lipid film was resuspended in 50 mM HEPES, pH 7, supplemented with 110 mM NaCl and 80 mM calcein and extruded with Avanti's mini extruder (Alabaster, Ala.). External calcein was removed by gel filtration through a 1.5×50 cm Econo-Column (Bio-Rad) freshly packed with Sephadex 50 (GE Healthcare). CT20 Bax peptides were added at concentrations equivalent to those used with cells in culture. Calcein fluorescence was excited at 495 nm and emission spectra recorded between 510 and 550 nm (excitation/ emission slits: 10/3 nm). Samples were maintained at 37° C. and a final measurement taken at 24 hours. Maximum calcein release was obtained by the addition of Triton ×100 (0.1% final concentration) to calcein loaded LUVs without nanoparticles that had had been incubated at 37° C. for 24 hours after the addition of 10 μL DMSO.
Using a commercially synthesized peptide composed of the last twenty amino acids ([…]) of the C-terminus of Bax (CT20), the ability of CT20p peptideto insert and permeabilize lipid membranes was examined. Liposomes contained phospholipids that composed the mitochondrial outer membrane and were loaded with calcein. […] In FIG. 1C, the red lines indicate maximal release of calcein with Triton X-100. The blue lines indicate treatment with DMSO and the green lines (except for control) indicate treatment with CT20 Bax peptides.
To determine whether the CT20p peptide could directly kill cancer cells, the CT20 wild type peptide was encapsulated in polymeric nanoparticles. As the CT20p peptide is amphipathic, it can be encapsulated within the hydrophobic pockets of aliphatic polymeric nanoparticles. […] To verify that the nanoparticles would not release the CT20 peptide at neutral pH, calcein loaded liposomes were prepared.
In FIG. 9, a calcein release assay was performed with calcein loaded lipid vesicles prepared with the composition of the mitochondrial membrane. Calcein release was measured as fluorescence. Controls were calcein release achieved with CT20p peptide alone and maximum calcein release obtained upon addition of Triton x100. A representative experiment of two independent experiments is shown. This confirmed that cargo is released from nanoparticles only by intracellular esterases or acidic pH (Santra et al., 2010).

wild type E. coli [4] = assay: E. coli colony formation after treatment; assay type: cell-based; conditions: FIG. 15
Experimental: This was determined by plating the E. coli after treatment then counting the resulting colonies after 24 hour incubation. […] The bacterial culture media was plated after 24 hours of treatment/exposure to Ct20p or the control conditions, a peptide (SCR) or no peptide and addition of DMSO, and the resulting colonies were counted. […] A conclusion was that the inhibition of growth seen in FIG. 14 was due to the killing or lysing of bacteria.

[5] = tested on: MDA-MB-231 cells implanted in the flanks of nude mice; assay: Murine tumor experiment, intratumoral injection, tumor volume by ultrasound; assay type: in vivo; conditions: for tumor growth / change in tumor volume: intratumoral injections over a 4-5 day period, versus empty nanoparticles or PBS
Experimental: One to two million MBA-MD-231 cells were harvested from culture and injected subcutaneously into the right and left flanks of 16 female nude mice (nu/nu, Charles River). After 2-3 weeks, tumor volume and growth was assessed by ultrasound (VisualSonics Vevo 2100). Mice with tumors were injected intratumorally with PBS, unloaded polymeric nanoparticles, or CT20 Bax peptide-loaded polymeric nanoparticles at 4× the concentrations described above. Injections were performed twice over a 4-5 day period. Mice were observed 0-5 days post-treatments and tumor volume assessed by ultrasound.
MDA-MB-231 cells were implanted in the flanks of nude mice. Initial growth of tumors was detected after 2 weeks. At this time tumors were measured, and over a 4-5 day period, the mice were treated with intratumoral injections of PBS, unloaded or empty nanoparticles (NP), or CT20 peptide/nanoparticles.
FIG. 6D provides representative ultrasound image of changes in tumor volume induced by treatment on days 0, 2 and 4 with the unloaded or CT20 peptide loaded nanoparticles. These findings indicate reduced uptake or effectiveness in non-cancerous cells.

wild type E. coli [6] = assay: E. coli growth in broth by optical density; assay type: cell-based; conditions: FIG. 14
Experimental: Attributes are shared among the peptides. […] The E. coli were grown in the presence of a peptide, concentrations of CT20p peptide or for control, SCR peptide, or no peptide for a control, in standard conditions for growing bacteria in broth media.

[7] = Pore formation in zwitterionic and anionic membranes, kinetics of calcein release and structural studies; assay type: biochemical; conditions: calcein transport
Description: An analysis of formation of relatively large membrane pores by Bax C-terminal 20-reside peptide (CT20p) and two mutants where the two native lysines are replaced either with glutamates (charge reversal mutation) or leucines (charge neutralization mutation) were examined. […] The kinetics of calcein release at various concentrations of the three peptides allowed identification of the second-order rate constants of pore formation within the membrane, the affinity constants of peptide units composing the pore, and the oligomeric pore structure. Nucleation of the pore is shown to be relatively slow and involve 2-3 peptide molecules, followed by a faster process of assembly of the pore that includes up to eight peptide molecules. Structural studies led to a model of an octameric transmembrane pore with an inner diameter of 20-22 A. Analysis of the kinetics of calcein release from lipid vesicles allows determination of rate constants of pore formation, peptide-peptide affinities within the membrane, the oligomeric state of transmembrane pores, and the role of the lysine residues. […]
Additionally, the pore structure was analyzed by polarized Fourier transform infrared, circular dichroism, and fluorescence experiments on the peptides reconstituted in phospholipid membranes. […]

[NH2][Pt]([NH2])([Cl])[Cl] [CDDP, cisplatin, reference compound]
changes in membrane symmetry (MDA-MB-231 cells [1]): induced significant alterations in the membrane symmetry | effect of caspase inhibition with Z-VAD-FMK on cell death (MDA-MB-231 cells [2]): inhibited by ZVAD-FMK | cell death / loss of membrane integrity (MDA-MB-231 cells [2]): induced cell death | effect of Bcl-2 overexpression on cell death (MDA-MB-231 cells [2]): impaired death

VTIFVAGVLTASLTIWEEMG [CT20-EE]
maximal release of calcein upon treatment with detergent [3]: did not occur | release of calcein from mitochondrial-like lipid vesicles [3]: did not cause calcein release

VTIFVAGVLTASLTIWKKMG [CT20p peptide]
nature of effect from colony counts (wild type E. coli [4]; 24 hours of treatment): bactericidal | minimum inhibitory concentration (MiC) (wild type E. coli [4]; plated after treatment, colonies counted after 24 hour incubation): 25 mg | tumor growth / change in tumor volume [5]: tumor regression | tumor growth / change in tumor volume ([5]; listed as CT20 peptide): prevented tumor growth | damage of normal tissue surrounding the tumors ([5]; ultrasound, FIG. 6D): little to no observable damage of normal tissue | time at which the growth curve reached a plateau (wild type E. coli [6]): 13 h | pore formation in lipid membranes [7]: efficient at forming pores | pore formation in lipid membranes ([7]; listed as wild-type peptide): most efficient pores | release of calcein from liposomes ([3]; 350 pM, pH 7, FIG. 9): did induce the release of calcein | maximal release of calcein upon treatment with detergent [3]: impaired the maximal release of calcein | release of calcein from mitochondrial-like lipid vesicles [3]: caused the release of calcein | effect of caspase inhibition with Z-VAD-FMK on cell death (MDA-MB-231 cells [2]): largely unaffected | cell death / loss of membrane integrity (MDA-MB-231 cells [2]): caused significant loss of membrane integrity | effect of Bcl-2 overexpression on cell death (MDA-MB-231 cells [2]): did not impair the death activity

VTIFVAGVLTASLTIWLLMG [CT20-LL]
maximal release of calcein upon treatment with detergent [3]: impaired the maximal release of calcein | release of calcein from mitochondrial-like lipid vesicles [3]: did not cause calcein release

Source: patent US11179436B2, “Methods and compositions comprising a C-terminal Bax peptide” (University of Central Florida Research Foundation, Inc., priority 2011, dated 2021)
